In article PMC11637483, “Dissecting caspase-2-mediated cell death: from intrinsic PIDDosome activation to chemical modulation” (Protein & Cell, 2024):
Where two headings read alike, the source gives them in different places.

How the values were obtained:
[1] = test system: HeLa-CASP2/CASP3/GSDMD TKO + CASP2 cells (human caspase-2); assay: ATP-based cell viability (CellTiter-Glo) in HeLa TKO cells with exogenous caspase-2 expression; conditions: for EC50: Homo sapiens, HeLa, ATP-based viability, HeLa TKO cells with exogenous caspase-2, titrated compound
From the text: Specific chemical compounds are powerful tools for dissecting target-related signaling mechanisms in biological contexts ([Beck et al., 2022]; [Zhang et al., 2012]). Prompted by this notion and possibly to identify a compound that could activate the PIDDosome, we designed a cell death-based high-throughput chemical screen in HeLa cells, in which a triple knockout of CASP2, CASP3, and GSDMD were constructed. CASP3 and GSDMD deficiency served as the background to minimize compound-induced nonspecific cytotoxicity and undesired pyroptosis. Using the triple knockout cells as the control, additional expression of exogenous caspase-2 allows the identification of compounds that can specifically activate the caspase-2-BID pathway and trigger apoptosis through caspase-7. […] In accordance with the apoptosis induction, HUHS015 induced evident processing of caspase-2 expressed in the triple-knockout cells (Fig. 3B). This indicated activation of caspase-2 as the protease-deficient C320A mutant of caspase-2 was not processed upon HUHS015 treatment (Fig. 3B). Accordingly, expression of caspase-2 C320A rendered no cell death in response to HUHS015 treatment (Fig. 3B).
Figure 3. Chemical screen identifies HUHS015 as an agonist of human caspase-2. (A) Screen raw data and selectivity analyses of the compound plate containing HUHS015. The ATP-based viability data of both HeLa-CASP2^−/−CASP3^−/−GSDMD^−/− (TKO) (control group) and TKO cells with exogenous caspase-2 expression (experimental group) are shown. The ratios of the cell viability between the two groups are calculated with 3 as a cutoff for positive compound hit selection. (B) HUHS015-induced cell death depends on caspase-2 activity. HeLa TKO cells expressing WT or enzymatically deficient C320A mutant of caspase-2 were treated with HUHS015. ATP-based cell viability and immunoblotting of caspase-2 cleavage are shown. (C and F) The structures and potencies of HUHS15 (C) and its optimized derivative HUHS15-036 (F). HeLa TKO cells with exogenous caspase-2 expression were treated with titrated compounds. The ATP-based viability data were plotted with compound concentration for EC50 calculation. (D) BID is required for HUHS15-induced caspase-2-dependent cell death. […] Processing of caspase-2, -3, and -7 was analyzed by immunoblotting. […] ATP-based cell viability in panels (B and D) is expressed as mean ± s.d. from three technical replicates. […]
Cell viability was measured by the ATP assay using the CellTiter-Glo® Luminescent Cell Viability Assay kit (Promega).
Drug-related Screening Library (25 × 384-well plate, more than 7,000 compounds) was used for the chemical screen in the TKO HeLa cells rescued with exogenous caspase-2 expression. […] After treatment for 12 h, the cell viability was measured by the ATP assay. […]

[2] = test system: caspase-2-expressing HeLa cells with BID, RAIDD or PIDD1 knockout; assay: Compound-induced caspase-2 activation and cell death in pathway-gene knockout HeLa cells; format: cell-based, human
Protocol: Figure 3. Chemical screen identifies HUHS015 as an agonist of human caspase-2. (A) Screen raw data and selectivity analyses of the compound plate containing HUHS015. The ATP-based viability data of both HeLa-CASP2^−/−CASP3^−/−GSDMD^−/− (TKO) (control group) and TKO cells with exogenous caspase-2 expression (experimental group) are shown. The ratios of the cell viability between the two groups are calculated with 3 as a cutoff for positive compound hit selection. (B) HUHS015-induced cell death depends on caspase-2 activity. HeLa TKO cells expressing WT or enzymatically deficient C320A mutant of caspase-2 were treated with HUHS015. ATP-based cell viability and immunoblotting of caspase-2 cleavage are shown. (C and F) The structures and potencies of HUHS15 (C) and its optimized derivative HUHS15-036 (F). HeLa TKO cells with exogenous caspase-2 expression were treated with titrated compounds. The ATP-based viability data were plotted with compound concentration for EC50 calculation. (D) BID is required for HUHS15-induced caspase-2-dependent cell death. WT and BID^−/− (KO) HeLa TKO cells with exogenous caspase-2 expression, as well as the knockout cells rescued with WT or D60E mutant of BID were treated with HUHS15. ATP-based cell viability and immunoblotting detecting caspase-2 and BID processing are shown. (E) HUHS15-induced caspase-3/7 activation relies on caspase-9 but is independent of PIDDosome. CASP2^−/− (KO) HeLa cells with exogenous caspase-2 expression in the indicated knockout background were treated with HUHS15. Processing of caspase-2, -3, and -7 was analyzed by immunoblotting. (G) Top gRNA hits from the genetic screen of HUHS015-36-induced apoptosis in HeLa TKO cells with exogenous caspase-2 expression. In all the data, indicated cells were treated with the compound for 5 h (for HUHS015-36) or 9 h (for HUHS015) before cell viability measurement and immunoblotting analyses. ATP-based cell viability in panels (B and D) is expressed as mean ± s.d. from three technical replicates. Data in panels (B–F) are representative of three independent experiments. […]

In the case of Cc1ccc2nc(-n3nc(C)c(Cc4ccccc4)c3O)[nH]c2c1 [HUHS015], the EC50 ([1]; read-out: EC50 (half-maximal effective concentration), caspase-2-mediated cell death) is reported as roughly 6.8 µM, the cell death ([2]; BID knockout) is reported as “diminished” and the “caspase-2 processing and caspase-3/7 activation” value ([2]; RAIDD knockout) is reported as “could still induce caspase-2 processing as well as caspase-3/7 activation”.

Cc1cccc2nc(-n3nc4c(c3O)CCCC4)[nH]c12 [HUHS015-36] was tested, and the EC50 ([1]; read-out: EC50, caspase-2-mediated cell death) was 0.06 µM, the “treated cells that underwent apoptosis” value ([1]; pool of CRISPR-Cas9 mutagenized caspase-2-expressing TKO HeLa cells, genetic screen) was “Over 95%” and the “caspase-2 activation and cell death” value ([2]; PIDD1 or RAIDD knockout, 5 h) was “neither PIDD1 nor RAIDD deficiency had any effects”.
